Measurements taken from doi:10.1101/2023.02.03.527073v1 (biorxiv, 2023).

What was measured:
CgBdf1 BD2 (CgBD2) [1] = target: T1, CgBdf1 BD2 (CgBD2) (Nakaseomyces glabratus, UniProt Q6FWV7); assay: HTRF competition with biotinylated H4ac4 peptide; type: binding
T1 sequence (Q6FWV7 269-391): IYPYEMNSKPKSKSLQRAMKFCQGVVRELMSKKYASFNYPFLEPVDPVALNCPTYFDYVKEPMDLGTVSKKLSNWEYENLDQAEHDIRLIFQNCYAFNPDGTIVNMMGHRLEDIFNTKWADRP

CgBdf1 BD1 (CgBD1) [2] = target: T2, CgBdf1 BD1 (CgBD1) (Nakaseomyces glabratus, UniProt Q6FWV7); assay: HTRF competition with biotinylated H4ac4 peptide; type: binding
T2 sequence (Q6FWV7 100-228): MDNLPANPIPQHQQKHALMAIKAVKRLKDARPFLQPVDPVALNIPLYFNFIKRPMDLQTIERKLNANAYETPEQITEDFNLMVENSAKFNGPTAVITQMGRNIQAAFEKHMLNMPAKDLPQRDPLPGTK

[3] = target: T3, human Brd4 BD1 (hBrd4 BD1) (Homo sapiens, UniProt O60885); assay: HTRF competition with biotinylated H4ac4 peptide; type: binding
[4] = target: T4, human Brd4 BD2 (hBrd4 BD2) (Homo sapiens, UniProt O60885); assay: HTRF competition with biotinylated H4ac4 peptide; type: binding
CgBdf1 BD1 (CgBD1) [5] = target: T2, CgBdf1 BD1 (CgBD1); assay: biochemical
CgBdf1 BD2 (CgBD2) [6] = target: T1, CgBdf1 BD2 (CgBD2); assay: biochemical
[7] = target: T4, human Brd4 BD2 (hBrd4 BD2); assay: biochemical
[8] = target: T3, human Brd4 BD1 (hBrd4 BD1); assay: biochemical

| SMILES | IC50 (CgBdf1 BD2 (CgBD2) [1]) [nM] | IC50 (CgBdf1 BD1 (CgBD1) [2]) [nM] | IC50 [3] [nM] | IC50 [4] [nM] | IC50 (CgBdf1 BD1 (CgBD1) [5]) [nM] | IC50 (CgBdf1 BD2 (CgBD2) [6]) [nM] | IC50 [7] [nM] | IC50 [8] [nM] |
| --- | --- | --- | --- | --- | --- | --- | --- | --- |
| Cc1ccc(-c2nnc(C)c(NCc3cccs3)n2)cc1 [compound 24, 24] | > 20000 | 2230 ± 260 | > 20000 | > 20000 | – | – | – | – |
| CC(=O)N1CCc2[nH]c3ccc(C(=O)Nc4ccc(N5CCOCC5)cc4)cc3c2C1 [compound 29, 29] | 2060 ± 230 | 1810 ± 1140 | – | – | 1100 | 2300 | 440 | 2900 |
| Cn1nccc1C(=O)NCc1ccc(-c2nc(-c3cccs3)no2)s1 [compound 63, 63] | – | 610 ± 100 | 25900 ± 7900 | – | – | – | – | > 20000 |
